Measured values: PMC3269340, “Pharmacokinetics of memantine in rats and mice” (PLoS Currents, 2012)

Key:
human OCT1 = molecular target: T1, human OCT1 (Homo sapiens, UniProt O15245); assay: Direct uptake transporter assay, OCT1; type: in vitro ADME; conditions: for Accumulation in transporter transfected cells: OCT1-transfected cells; for Accumulation in parental cells: parental CHO cells (OCT1 line)
T1 construct: expressed in transfected cells; host or cells: CHO cells
T1 sequence (O15245 1-554): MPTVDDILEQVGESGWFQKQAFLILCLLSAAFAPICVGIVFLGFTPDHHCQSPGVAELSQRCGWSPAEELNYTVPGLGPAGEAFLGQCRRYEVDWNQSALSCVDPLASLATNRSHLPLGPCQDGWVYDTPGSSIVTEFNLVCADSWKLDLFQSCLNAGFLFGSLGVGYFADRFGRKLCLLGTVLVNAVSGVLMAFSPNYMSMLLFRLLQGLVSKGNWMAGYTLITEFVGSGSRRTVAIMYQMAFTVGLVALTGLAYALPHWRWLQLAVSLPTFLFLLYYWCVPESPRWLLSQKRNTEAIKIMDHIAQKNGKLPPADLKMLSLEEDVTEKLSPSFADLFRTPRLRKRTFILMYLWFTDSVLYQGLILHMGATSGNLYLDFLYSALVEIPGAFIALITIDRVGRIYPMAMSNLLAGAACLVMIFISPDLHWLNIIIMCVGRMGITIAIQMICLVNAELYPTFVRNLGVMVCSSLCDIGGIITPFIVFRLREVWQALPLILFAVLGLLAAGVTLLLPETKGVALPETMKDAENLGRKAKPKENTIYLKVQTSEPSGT
Description: (§1) To determine whether memantine is a substrate of the human OATP2B1 (OATP-B), OCT1, OCT2, OAT3, PEPT1, PEPT2 uptake transporters.
(§2) The potential for memantine to be a substrate of an uptake transporter was determined directly by comparing the uptake of memantine into cells expressing the selected uptake transporter with its uptake into control cells. Memantine was added to transporter-expressing and control cells at two concentrations (PEPT1 and PEPT2 100 and 300 µM, OCT1 and OCT2 50 and 100 µM, OATP2B1 100 and 300 µM), and incubated with cells for 2 and 20 min at 37±1°C (75 µL final incubation volume). […] Incubations were carried out as described in the indirect uptake transporter assays. The concentration of memantine was determined by LC-MS/MS.

OATP2B1 = molecular target: T2, OATP2B1 (Homo sapiens, UniProt O94956); assay: Direct uptake transporter assay, OATP2B1; type: in vitro ADME; conditions: for Accumulation in transporter transfected cells: OATP2B1-transfected cells; for Accumulation in parental cells: parental MDCKII cells (OATP2B1 line)
T2 construct: expressed in transfected cells; host or cells: MDCKII cells
T2 sequence (O94956 1-709): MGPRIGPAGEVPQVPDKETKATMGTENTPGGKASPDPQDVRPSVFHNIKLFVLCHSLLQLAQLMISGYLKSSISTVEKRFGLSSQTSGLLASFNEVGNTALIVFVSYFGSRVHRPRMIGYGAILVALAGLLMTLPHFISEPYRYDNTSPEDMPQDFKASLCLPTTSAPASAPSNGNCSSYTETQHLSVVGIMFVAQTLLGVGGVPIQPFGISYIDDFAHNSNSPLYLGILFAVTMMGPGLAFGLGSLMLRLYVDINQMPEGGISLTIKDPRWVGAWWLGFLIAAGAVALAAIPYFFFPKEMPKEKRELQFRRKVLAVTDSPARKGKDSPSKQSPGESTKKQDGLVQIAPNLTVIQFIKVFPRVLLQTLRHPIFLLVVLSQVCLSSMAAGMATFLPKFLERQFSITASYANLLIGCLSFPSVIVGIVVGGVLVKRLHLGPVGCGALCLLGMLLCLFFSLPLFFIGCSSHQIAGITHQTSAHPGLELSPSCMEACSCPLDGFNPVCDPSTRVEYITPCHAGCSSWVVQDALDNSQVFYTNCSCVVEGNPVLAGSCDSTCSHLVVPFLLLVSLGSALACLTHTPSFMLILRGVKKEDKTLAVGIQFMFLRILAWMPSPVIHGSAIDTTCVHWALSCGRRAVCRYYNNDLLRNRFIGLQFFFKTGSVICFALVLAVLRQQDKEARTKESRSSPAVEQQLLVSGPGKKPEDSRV
Description: as §1, §2

YAC128 mice = conditions: cited from earlier work

SMILES: CC12CC3CC(C)(C1)CC(N)(C3)C2 [memantine]
- active transport by OCT1 (human OCT1): not actively transported
- Highest Fold Activation (human OCT1; OCT1): Not observed
- Accumulation in transporter transfected cells (human OCT1; 2 min, 50 µM): 3818 pmol/mg
- Accumulation in transporter transfected cells (human OCT1; 2 min, 100 µM): 5878 pmol/mg
- Accumulation in transporter transfected cells (human OCT1; 20 min, 50 µM): 5540 pmol/mg
- Accumulation in transporter transfected cells (human OCT1; 20 min, 100 µM): 9190 pmol/mg
- Accumulation in parental cells (human OCT1; 2 min, 50 µM): 3894 pmol/mg
- Accumulation in parental cells (human OCT1; 2 min, 100 µM): 6337 pmol/mg
- Accumulation in parental cells (human OCT1; 20 min, 50 µM): 5672 pmol/mg
- Accumulation in parental cells (human OCT1; 20 min, 100 µM): 9576 pmol/mg
- substrate of OATP2B1 uptake transporter (OATP2B1): appeared to be a substrate
- accumulation in transporter-transfected cells higher than in parental cells (OATP2B1; OATP2B1): > 1.5 fold
- Highest Fold Activation (OATP2B1; OATP2B1, 300 µM, 20 min): 2.1 (300 µM, 20 min)
- Accumulation in transporter transfected cells (OATP2B1; 2 min, 100 µM): 11317 pmol/mg
- Accumulation in transporter transfected cells (OATP2B1; 2 min, 300 µM): 18296 pmol/mg
- Accumulation in transporter transfected cells (OATP2B1; 20 min, 100 µM): 20820 pmol/mg
- Accumulation in transporter transfected cells (OATP2B1; 20 min, 300 µM): 45866 pmol/mg
- Accumulation in parental cells (OATP2B1; 2 min, 100 µM): 6409 pmol/mg
- Accumulation in parental cells (OATP2B1; 2 min, 300 µM): 10891 pmol/mg
- Accumulation in parental cells (OATP2B1; 20 min, 100 µM): 10889 pmol/mg
- Accumulation in parental cells (OATP2B1; 20 min, 300 µM): 21496 pmol/mg
- CREB phosphorylation deficit (YAC128 mice; YAC128 mice, 1 mg/kg in drinking water for 2 months, age 4 months): reversed the deficit in CREB phosphorylation
- rotarod learning task (YAC128 mice; YAC128 mice, 1 mg/kg in drinking water for 2 months): improvement in a rotarod learning task
- motor performance and neuropathology compared to vehicle-treated mice (YAC128 mice; YAC128 mice, high-dose (30 mg/kg)): worsened motor performance and neuropathology
- HTT aggregate formation and TCP-1 expression levels (YAC128 mice; YAC128 mice, high-dose): decrease HTT aggregate formation and TCP-1 expression levels
- striatal levels of Rhes protein (YAC128 mice; YAC128 mice, low-dose (not high-dose)): decreased striatal levels of Rhes protein
- neuropathology and motor deficits (YAC128 mice; aged (12 months) YAC128 mice, low-dose): rescue neuropathology as well as motor deficits
